Experimental data: patent US20050026987A1, “CBI analogues of the duocarmycins and CC-1065” (The Scripps Research Institute, priority 2003, published 2005)
Values joined by “and” are separate entries in the source; they are usually repeats but may differ in a detail not shown here. Identical values can stand only once. Like-named read-outs stand apart in the source and are kept apart here.

What was measured:
L1210 [1] = test: L1210 cytotoxic potency; conditions: for fold less potent than C5 acyl derivative 54: 52: versus the C5 acyl derivatives, 62: versus 54; for distinction NO2 versus OMe substituent (more potent than corresponding methoxy derivative): C5, C6, C7 nitro vs corresponding methoxy
L1210 [2] = conditions: cited from earlier work
w794 DNA = test: DNA alkylation selectivity, efficiency and rate in w794 DNA; type: biochemical
[3] = read-out: IC50 (cytotoxic potency), L1210
[4] = Mus musculus, L1210, read-out: IC50 (cytotoxic potency)
[5] = relative to (+)-CBI-indole (R=H)
[6] = relative to CBI-TMI, IC50=30 pM

## O=C1C=C2N(C(=O)c3cc4c5c(ccc4[nH]3)OCC5)CC3CC23c2ccccc21 [compound 70, N^2-[(1,2-Dihydropyrrolo[3,2-e]benzofuran-7-yl)carbonyl]-(8bR,9aS)-1,2,9,9a-tetrahydro-cyclopropa[c]benz[e]indol-4-one]
L1210 [1]
  relative cytotoxic potency in words: slightly more potent than 7

## CSc1ccc2[nH]c(C(=O)N3CC4CC45C3=CC(=O)c3ccccc35)cc2c1 [compound 21, N^2-[(5-Thiomethylindole-2-yl)carbonyl]-(8bR,9aS)-1,2,9,9a-tetrahydrocyclopropa[c]benz-[e]indol-4-one]
L1210 [1]; [3]
  IC50: 0.05 nM

## CCSc1ccc2[nH]c(C(=O)N3CC4CC45C3=CC(=O)c3ccccc35)cc2c1 [compound 23, N^2-[(5-Thioethylindole-2-yl)carbonyl]-(8bR,9aS)-1,2,9,9a-tetrahydrocyclopropa[c]benz[e]indol-4-one]
L1210 [1]; [3]
  IC50: 0.1 nM

## CS(=O)(=O)c1ccc2[nH]c(C(=O)N3C[C@@H](CCl)c4c3cc(O)c3ccccc43)cc2c1 [compound 64, 3-(5-Methylsulfonylindole-2-carbonyl)-1-(S)-(chloromethyl)-5-hydroxy-1,2-dihydro-3H-benz[e]indole]
L1210 [1]; [4]
  IC50: 0.003 nM
L1210 [1]; [5]
  increase in cytotoxic potency over (+)-CBI-indole (5): 1000 fold

## O=C(C1Oc2ccc3[nH]ccc3c2O1)N1C[C@@H](CCl)c2c1cc(O)c1ccccc21 (stereo partly drawn) [compound 74, 3-([1,3]Dioxolo[e]indole-2-carbonyl)-1-(S)-(chloromethyl)-5-hydroxy-1,2-dihydro-3H-benz[e]indole]
L1210 [1]
  relative cytotoxic potency in words: much more active than the corresponding unconstrained 4,5 dimethoxy derivative 10

## CCOc1ccc2[nH]c(C(=O)N3CC4CC45C3=CC(=O)c3ccccc35)cc2c1 [compound 15, N^2-[(5-Ethoxyindole-2-yl)carbonyl]-(8bR,9aS)-1,2,9,9a-tetrahydrocyclopropa[c]benz[e]indol-4-one]
L1210 [1]; C5 alkyl ethers relative to C5 OMe
  additional increase in cytotoxic potency versus C5 methoxy: 5 fold
L1210 [1]; [3]
  IC50: 0.01 nM

## O=Cc1ccc2[nH]c(C(=O)N3C[C@@H](CCl)c4c3cc(O)c3ccccc43)cc2c1 [compound 52, 3-(5-Formylindole-2-carbonyl)-1-(S)-(chloromethyl)-5-hydroxy-1,2-dihydro-3H-benz[e]indole]
L1210 [1]
  fold less potent than C5 acyl derivative 54: 50 fold

## O=C(c1cc2cccc([N+](=O)[O-])c2[nH]1)N1C[C@@H](CCl)c2c1cc(O)c1ccccc21 [compound 51, 3-(7-Nitroindole-2-carbonyl)-1-(S)-(chloromethyl)-5-hydroxy-1,2-dihydro-3H-benz[e]indole]
L1210 [1]
  distinction NO2 versus OMe substituent (more potent than corresponding methoxy derivative): 1.5 ×

## N#Cc1ccc2[nH]c(C(=O)N3CC4CC45C3=CC(=O)c3ccccc35)cc2c1 [compound 31, N^2-[(5-Cyanoindole-2-yl)carbonyl]-(8bR,9aS)-1,2,9,9a-tetrahydrocyclopropa[c]benz[e]in-dol-4-one]
L1210 [1]; [3]
  IC50: 0.03 nM

## O=C1C=C2N(C(=O)c3cc4ccccc4[nH]3)CC3CC23c2ccccc21 [compound 5, N^2-[(Indole-2-yl)carbonyl]-(8bR,9aS)-1,2,9,9a-tetrahydrocyclopropa[c]benz[e]indol-4-one, reference compound]
L1210 [1]; [3]
  IC50: 0.05 nM

## O=C1C=C2N(C(=O)c3cc4cc5c(cc4[nH]3)OCO5)C[C@H]3C[C@@]23c2ccccc21 [compound 75, N^2-[([1,3]Dioxolo[f]indole-2-yl)carbonyl]-(8bR,9aS)-1,2,9,9a-tetrahydrocyclopropa[c]-benz[e]indol-4-one]
L1210 [1]
  relative cytotoxic potency in words: substantially less potent than the corresponding unconstrained C5,6 dimethoxy derivative 11

## Cc1ccc2[nH]c(C(=O)N3C[C@H]4C[C@@]45C3=CC(=O)c3ccccc35)cc2c1 [compound 24, N^2-[(5-Methylindole-2-yl)carbonyl]-(8bR,9aS)-1,2,9,9a-tetrahydrocyclopropa[c]benz[e]in-dol-4-one]
L1210 [1]; [3]
  IC50: 2 nM

## CCS(=O)(=O)c1ccc2[nH]c(C(=O)N3C[C@@H](CCl)c4c3cc(O)c3ccccc43)cc2c1 [compound 65, 3-(5-Ethylsulfonylindole-2-carbonyl)-1-(S)-(chloromethyl)-5-hydroxy-1,2-dihydro-3H-benz[e]indole]
L1210 [1]; [4]
  IC50: 0.04 nM

## COc1ccc2[nH]c(C(=O)N3C[C@H]4C[C@@]45C3=CC(=O)c3ccccc35)cc2c1 [compound 7, N^2-[(5-Methoxyindole-2-yl)carbonyl]-(8bR,9aS)-1,2,9,9a-tetrahydrocyclopropa[c]benz[e]indol-4-one]
L1210 [1]; [3]
  IC50: 0.05 nM
L1210 [1]; [6]
  decrease in cytotoxic potency compared with CBI-TMI (4): 1.6 fold

## O=C1CCc2c1ccc1[nH]c(C(=O)N3C[C@@H](CCl)c4c3cc(O)c3ccccc43)cc21 [compound 72, 3-(6-Oxo-cyclopenten[e]indole-2-carbonyl)-1-(S)-(chloromethyl)-5-hydroxy-1,2-dihydro-3H-benz[e]indole]
L1210 [1]
  relative cytotoxic potency in words: matched the potency of the C5 substituted methyl and ethyl ketones 54 and 56

## NC(=O)N1CCc2c1ccc1[nH]c(C(=O)N3C[C@H]4C[C@@]45C3=CC(=O)c3ccccc35)cc21 [(+)-CBI-CDPI1]
L1210 [2]; disclosed in prior studies (J. Org. Chem. 1996, 61, 4894), read-out: IC50 (cytotoxic potency), prior studies
  IC50: 0.005 nM

## COc1ccc2[nH]c(C(=O)N3CC4CC45C3=CC(=O)c3ccccc35)cc2c1OC [compound 10, N^2-[(4,5-Dimethoxyindole-2-yl)carbonyl]-(8bR,9aS)-1,2,9,9a-tetrahydrocyclopropa[c]benz[e]indol-4-one]
L1210 [1]
  relative cytotoxic potency in words: much less active

## CNC(=O)c1ccc2[nH]c(C(=O)N3C[C@@H](CCl)c4c3cc(O)c3ccccc43)cc2c1 [compound 62, 3-(5-Methylcarbamoylindole-2-carbonyl)-1-(S)-(chloromethyl)-5-hydroxy-1,2-dihydro-3H-benz[e]indole]
L1210 [1]
  fold less potent than C5 acyl derivative 54: 5 fold
L1210 [1]; [6]
  fold more potent than (+)-CBI-TMI: 3 fold

## O=C(c1cc2cc([N+](=O)[O-])ccc2[nH]1)N1C[C@@H](CCl)c2c1cc(O)c1ccccc21 [compound 49, 3-(5-Nitroindole-2-carbonyl)-1-(S)-(chloromethyl)-5-hydroxy-1,2-dihydro-3H-benz[e]indole]
L1210 [1]
  distinction NO2 versus OMe substituent (more potent than corresponding methoxy derivative): 2.5 ×
L1210 [1]; [4]
  IC50: 0.02 nM

## O=C1C=C2N(C(=O)c3cc4c(ccc5ccccc54)[nH]3)C[C@H]3C[C@@]23c2ccccc21 [(+)-77, N^2-[(Benz[e]indole-2-yl)carbonyl]-1,2,9,9a-tetrahydrocyclopropa[c]benz[e]indol-4-one]
L1210 [1]
  reduction in potency relative to the fused pyrrole 69 or the fused furan 71: 6-8 fold
L1210 [1]; [5]
  reduction in cytotoxic potency compared to (+)-CBI-indole: 2 fold

## CCCC(=O)c1ccc2[nH]c(C(=O)N3C[C@H]4C[C@@]45C3=CC(=O)c3ccccc35)cc2c1 [compound 57, N^2-[(5-Butyrylindole-2-yl)carbonyl]-(8bR,9aS)-1,2,9,9a-tetrahydrocyclopropa[c]benz[e]indol-4-one]
L1210 [1]; [3]
  IC50: 0.02 nM

## CC(=O)c1ccc2[nH]c(C(=O)N3C[C@H]4C[C@@]45C3=CC(=O)c3ccccc35)cc2c1 [compound 54, N^2-[(5-Acetylindole-2-yl)carbonyl]-(8bR,9aS)-1,2,9,9a-tetrahydrocyclopropa[c]benz[e]in-dol-4-one]
L1210 [1]; [5]
  increase in cytotoxic potency over (+)-CBI-indole (5): 1000 fold
w794 DNA
  DNA alkylation selectivity: no alterations in the inherent DNA alkylation selectivity
  rate and efficiency of DNA alkylation: enhanced rate and efficiency of DNA alkylation

## COc1cc2cc(C(=O)N3CC4CC45C3=CC(=O)c3ccccc35)[nH]c2c(OC)c1OC (stereo not drawn) [CBI-TMI, reference compound]
L1210 [1]; [3]
  IC50: 0.03 nM
L1210 [1]; [5]
  increase in cytotoxic potency over (+)-CBI-indole (5): ~100 fold and 90 fold

## O=C1C=C2N(C(=O)c3cc4cc5ccccc5cc4[nH]3)C[C@@H]3C[C@]23c2ccccc21 [(+)-78, N^2-[(Benz[f]indole-2-yl)carbonyl]-1,2,9,9a-tetrahydrocyclopropa[c]benz[e]indol-4-one]
L1210 [1]; [5]
  increase in cytotoxic potency over (+)-CBI-indole (5): 5 fold

## COC(=O)c1cc2c([nH]1)C(=O)C=C1N(C(=O)c3cc4cc(OC)c(OC)c(OC)c4[nH]3)CC3CC123 (stereo not drawn) [duocarmycin SA, reference compound]
L1210 [1]; [4]
  IC50: 0.006 to 0.01 nM
L1210 [2]; literature comparison series
  effect of 5,6,7-trimethoxy substitution / removal of TMI methoxy substituents on cytotoxic potency: 6.5-10 fold

## O=C(c1cc2ccc([N+](=O)[O-])cc2[nH]1)N1C[C@@H](CCl)c2c1cc(O)c1ccccc21 [compound 50, 3-(6-Nitroindole-2-carbonyl)-1-(S)-(chloromethyl)-5-hydroxy-1,2-dihydro-3H-benz[e]indole]
L1210 [1]
  distinction NO2 versus OMe substituent (more potent than corresponding methoxy derivative): 5 ×

## COc1ccc2cc(C(=O)N3CC4CC45C3=CC(=O)c3ccccc35)[nH]c2c1OC [compound 12, N^2-[(6,7-Dimethoxyindole-2-yl)carbonyl]-(8bR,9aS)-1,2,9,9a-tetrahydrocyclopropa[c]benz[e]indol-4-one]
L1210 [1]; [6]
  decrease in cytotoxic potency compared with CBI-TMI (4): 6.6 fold

## COc1c(O)c2c(c3cc(C(=O)N4CCc5c4c(O)c(OC)c4[nH]c(C(=O)N6CC7CC78C6=CC(=O)c6[nH]cc(C)c68)cc54)[nH]c13)CCN2C(N)=O (stereo not drawn) [CC-1065]
L1210 [1]; [4]
  IC50: 0.02 nM

## CCc1ccc2[nH]c(C(=O)N3CC4CC45C3=CC(=O)c3ccccc35)cc2c1 [compound 25, N^2-[(5-Ethylindole-2-yl)carbonyl]-(8bR,9aS)-1,2,9,9a-tetrahydrocyclopropa[c]benz[e]indol-4-one]
L1210 [1]; [3]
  IC50: 2 nM

## COc1cccc2[nH]c(C(=O)N3C[C@H]4C[C@@]45C3=CC(=O)c3ccccc35)cc12 [compound 6, N^2-[(4-Methoxyindole-2-yl)carbonyl]-(8bR,9aS)-1,2,9,9a-tetrahydrocyclopropa[c]benz[e]indol-4-one]
L1210 [1]; [5]
  increase in cytotoxic potency over (+)-CBI-indole (5): 4 fold
L1210 [1]; [6]
  decrease in cytotoxic potency compared with CBI-TMI (4): 17 fold and 16-17 fold

## CCC(=O)c1ccc2[nH]c(C(=O)N3CC4CC45C3=CC(=O)c3ccccc35)cc2c1 [compound 56, N^2-[(5-Propionylindole-2-yl)carbonyl]-(8bR,9aS)-1,2,9,9a-tetrahydrocyclopropa[c]benz[e]-indol-4-one]
L1210 [1]; [5]
  increase in cytotoxic potency over (+)-CBI-indole (5): 1000 fold
